Converted amounts (≈) assume the structure as drawn. Where two headings read alike, the source gives them in different places.
How the values were obtained:
CHIKV nsP2 ATPase [1] = biological target: T1, CHIKV nsP2 ATPase (Chikungunya virus, UniProt Q8JUX6); experiment: Secondary CHIKV nsP2 ATPase assay (ADP-Glo); conditions: for Hill slope: ADP-Glo dose response
CHIKV nsP2 ATPase [2] = biological target: T1, CHIKV nsP2 ATPase; experiment: High throughput nsP2 ATPase activity assay (Malachite Green)
Kinetic solubility = conditions: kinetic from dmso stock
[3] = read-out: Malachite Green % INHIBITION (ORIGINAL)
[4] = read-out: Malachite Green % INHIBITION (RESCREEN)
[5] = read-out: ADP-Glo IC50, Avge n=2, 1 nM CHIKV nsP2fl, 30 μM ATP, 30 min pre-incubation

T1 sequence (Q8JUX6 536-1333): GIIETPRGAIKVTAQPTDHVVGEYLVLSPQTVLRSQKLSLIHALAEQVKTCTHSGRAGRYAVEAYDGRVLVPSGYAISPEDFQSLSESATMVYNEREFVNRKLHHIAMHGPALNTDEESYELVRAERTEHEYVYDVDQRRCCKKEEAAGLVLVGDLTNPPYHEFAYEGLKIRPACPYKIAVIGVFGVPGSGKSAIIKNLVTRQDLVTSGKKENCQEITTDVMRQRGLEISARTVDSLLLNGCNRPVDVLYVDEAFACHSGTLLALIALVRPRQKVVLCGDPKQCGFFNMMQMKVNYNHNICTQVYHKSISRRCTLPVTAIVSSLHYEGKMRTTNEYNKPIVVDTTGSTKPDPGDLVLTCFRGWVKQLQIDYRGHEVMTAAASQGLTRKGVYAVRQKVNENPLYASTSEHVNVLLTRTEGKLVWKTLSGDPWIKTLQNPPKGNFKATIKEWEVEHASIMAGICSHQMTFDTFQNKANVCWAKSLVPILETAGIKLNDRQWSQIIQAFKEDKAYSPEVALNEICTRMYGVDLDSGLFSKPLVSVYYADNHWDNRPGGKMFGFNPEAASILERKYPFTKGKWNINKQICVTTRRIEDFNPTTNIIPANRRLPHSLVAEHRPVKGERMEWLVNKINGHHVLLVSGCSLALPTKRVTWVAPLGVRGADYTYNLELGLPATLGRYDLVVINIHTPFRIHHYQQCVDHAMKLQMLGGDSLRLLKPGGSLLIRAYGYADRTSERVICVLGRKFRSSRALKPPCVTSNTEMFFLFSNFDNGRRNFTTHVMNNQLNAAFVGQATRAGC

CS(=O)(=O)NCC1CCOC2(CCN(C(=O)C3(c4ccccc4)CCCC3)CC2)C1 (stereo not shown) [RA-0001822]
IC50 (CHIKV nsP2 ATPase [1]): 2.3 µM
Hill slope (CHIKV nsP2 ATPase [1]; Avge n=2): 0.85
inhibition at 25 µM (CHIKV nsP2 ATPase [2]; [3]): 84%
inhibition at 25 µM (CHIKV nsP2 ATPase [2]; [4]): 81%
solubility kinetic (Kinetic solubility): 236 µM (≈ 103 µg/mL)

CC1SC2(C(=O)Nc3ccccc32)N(CCc2c[nH]c3ccccc23)C1=O (stereo not shown) [RA-0001810]
IC50 (CHIKV nsP2 ATPase [1]): 27.5 µM
Hill slope (CHIKV nsP2 ATPase [1]; Avge n=2): 2.65
inhibition at 25 µM (CHIKV nsP2 ATPase [2]; [3]): 58%
inhibition at 25 µM (CHIKV nsP2 ATPase [2]; [4]): 76%

O=C(CN1C(=O)C2C3CCC(C3)C2C1=O)OCC(=O)c1ccc(Cl)cc1 (stereo not shown) [RA-0001796]
IC50 (CHIKV nsP2 ATPase [1]): 19.9 µM
Hill slope (CHIKV nsP2 ATPase [1]; Avge n=2): 0.6
inhibition at 25 µM (CHIKV nsP2 ATPase [2]; [3]): 60%
inhibition at 25 µM (CHIKV nsP2 ATPase [2]; [4]): 55%

Clc1ccccc1CSC1=NC2(CCCCC2)Nc2ccccc21 [RA-0001813]
inhibition at 25 µM (CHIKV nsP2 ATPase [2]; [3]): 66%
inhibition at 25 µM (CHIKV nsP2 ATPase [2]; [4]): 81%

N#Cc1c(SCc2cccc(F)c2)nsc1SCc1cccc(F)c1 [RA-0001805]
inhibition at 25 µM (CHIKV nsP2 ATPase [2]; [3]): 33%
inhibition at 25 µM (CHIKV nsP2 ATPase [2]; [4]): 51%

Cc1ccnc(OC2CCOC3(CCN(C(=O)C4(c5ccccc5)CCCC4)CC3)C2)c1 (stereo not shown) [RA-0001821]
Hill slope (CHIKV nsP2 ATPase [1]; Avge n=2): 1.25
IC50 (CHIKV nsP2 ATPase [1]; [5]): 4 µM
inhibition at 25 µM (CHIKV nsP2 ATPase [2]; [3]): 70%
inhibition at 25 µM (CHIKV nsP2 ATPase [2]; [4]): 65%
solubility kinetic (Kinetic solubility): 14.2 µM (≈ 6.17 µg/mL)

CCCC(C(=O)O)N1C(=O)/C(=C/c2ccc(-c3ccc(Br)cc3)o2)SC1=S (stereo not shown) [RA-0001801]
Hill slope (CHIKV nsP2 ATPase [1]; Avge n=2): 1.4
IC50 (CHIKV nsP2 ATPase [1]; [5]): 12.8 µM
inhibition at 25 µM (CHIKV nsP2 ATPase [2]; [3]): 62%
inhibition at 25 µM (CHIKV nsP2 ATPase [2]; [4]): 55%

Brc1ccc(-c2csc(N3CCc4ccccc4C3)n2)cc1 [RA-0001809]
inhibition at 25 µM (CHIKV nsP2 ATPase [2]; [3]): 58%
inhibition at 25 µM (CHIKV nsP2 ATPase [2]; [4]): 60%

Cc1ccc(N2C(=O)/C(=C/C=C/c3ccco3)C(=O)NC2=S)cc1 [RA-0001799]
Hill slope (CHIKV nsP2 ATPase [1]; Avge n=2): 2.8
inhibition at 25 µM (CHIKV nsP2 ATPase [2]; [3]): 85%
inhibition at 25 µM (CHIKV nsP2 ATPase [2]; [4]): 64%

Cc1nc(CC2CCOC3(CCN(C(=O)C4(c5ccccc5)CCCC4)CC3)C2)no1 (stereo not shown) [RA-0001823]
IC50 (CHIKV nsP2 ATPase [1]): 1.5 µM
Hill slope (CHIKV nsP2 ATPase [1]; Avge n=2): 0.87
inhibition at 25 µM (CHIKV nsP2 ATPase [2]; [3]): 78%
inhibition at 25 µM (CHIKV nsP2 ATPase [2]; [4]): 82%
solubility kinetic (Kinetic solubility): 202 µM (≈ 85.6 µg/mL)

O=C(CSc1nnc2c(=O)n(-c3cccc(F)c3)ccn12)c1c[nH]c2ccccc12 [RA-0001818]
inhibition at 25 µM (CHIKV nsP2 ATPase [2]; [3]): 50%
inhibition at 25 µM (CHIKV nsP2 ATPase [2]; [4]): 145%

Fc1cccc(Cl)c1Cn1cccc1C1=NC(CSCc2ccccc2)CO1 (stereo not shown) [RA-0001811]
inhibition at 25 µM (CHIKV nsP2 ATPase [2]; [3]): 46%
inhibition at 25 µM (CHIKV nsP2 ATPase [2]; [4]): 56%

N#Cc1c(SCc2ccccc2Cl)nsc1SCc1ccccc1Cl [RA-0001804]
Hill slope (CHIKV nsP2 ATPase [1]; Avge n=2): 2.35
inhibition at 25 µM (CHIKV nsP2 ATPase [2]; [3]): 53%
inhibition at 25 µM (CHIKV nsP2 ATPase [2]; [4]): 64%

CN(Cc1ccco1)c1nc(-c2ccc(Cl)cc2)nc2ccccc12 [RA-0001817]
inhibition at 25 µM (CHIKV nsP2 ATPase [2]; [3]): 49%
inhibition at 25 µM (CHIKV nsP2 ATPase [2]; [4]): 56%

Fc1cccc(CSC2=NC3(CCCCC3)Nc3ccccc32)c1 [RA-0001815]
inhibition at 25 µM (CHIKV nsP2 ATPase [2]; [3]): 81%
inhibition at 25 µM (CHIKV nsP2 ATPase [2]; [4]): 77%

O=C(C1CCCN(c2ccc(Sc3ccc(Br)cc3)nn2)C1)N1CCSCC1 (stereo not shown) [RA-0001816]
Hill slope (CHIKV nsP2 ATPase [1]; Avge n=2): 1.2
IC50 (CHIKV nsP2 ATPase [1]; [5]): 7.2 µM
inhibition at 25 µM (CHIKV nsP2 ATPase [2]; [3]): 67%
inhibition at 25 µM (CHIKV nsP2 ATPase [2]; [4]): 71%

O=C1c2oc3ccccc3c(=O)c2C(c2ccc(O)cc2)N1Cc1ccccc1Cl (stereo not shown) [RA-0001802]
IC50 (CHIKV nsP2 ATPase [1]): 14.8 µM
Hill slope (CHIKV nsP2 ATPase [1]; Avge n=2): 1
inhibition at 25 µM (CHIKV nsP2 ATPase [2]; [3]): 37%
inhibition at 25 µM (CHIKV nsP2 ATPase [2]; [4]): 51%

CSc1ccc(Cn2cccc2C2=NC(CSCc3ccc(F)cc3)CO2)cc1 (stereo not shown) [RA-0001812]
inhibition at 25 µM (CHIKV nsP2 ATPase [2]; [3]): 48%
inhibition at 25 µM (CHIKV nsP2 ATPase [2]; [4]): 53%

N#Cc1c(SCc2ccccc2)cc(SCc2ccccc2)cc1SCc1ccccc1 [RA-0001807]
Hill slope (CHIKV nsP2 ATPase [1]; Avge n=2): 2
inhibition at 25 µM (CHIKV nsP2 ATPase [2]; [3]): 45%
inhibition at 25 µM (CHIKV nsP2 ATPase [2]; [4]): 60%

Cc1ccc(CSc2nsc(SCc3ccc(C)cc3)c2C#N)cc1 [RA-0001806]
inhibition at 25 µM (CHIKV nsP2 ATPase [2]; [3]): 45%
inhibition at 25 µM (CHIKV nsP2 ATPase [2]; [4]): 53%

O=c1c(O)c(-c2ccc(O)c(O)c2)oc2cc(O)cc(O)c12 [RA-0001795]
IC50 (CHIKV nsP2 ATPase [1]): 26.7 µM
Hill slope (CHIKV nsP2 ATPase [1]; Avge n=2): 0.7
inhibition at 25 µM (CHIKV nsP2 ATPase [2]; [3]): 62%
inhibition at 25 µM (CHIKV nsP2 ATPase [2]; [4]): 55%

Cc1ncc2c(n1)COC21CN(C(=O)C2(c3ccccc3)CCCC2)C1 [RA-0001824]
IC50 (CHIKV nsP2 ATPase [1]): 5.6 µM
Hill slope (CHIKV nsP2 ATPase [1]; Avge n=2): 0.43
inhibition at 25 µM (CHIKV nsP2 ATPase [2]; [3]): 79%
inhibition at 25 µM (CHIKV nsP2 ATPase [2]; [4]): 69%

COc1ccc(OC)c(N2C(=O)/C(=C/c3ccco3)C(=O)NC2=S)c1 [RA-0001798]
Hill slope (CHIKV nsP2 ATPase [1]; Avge n=2): 1.4
IC50 (CHIKV nsP2 ATPase [1]; [5]): 3.8 µM
IC50 (CHIKV nsP2 ATPase [1]; read-out: ADP-Glo IC50, Avge n=2, 1 nM CHIKV nsP2fl, 30 μM ATP, 30 min pre-incubation, listed as 1798): < 10 µM
inhibition at 25 µM (CHIKV nsP2 ATPase [2]; [3]): 79%
inhibition at 25 µM (CHIKV nsP2 ATPase [2]; [4]): 74%

COc1cc(Cl)c(NS(=O)(=O)c2c(C)sc(C)c2-c2[nH]nc(C)c2C)c(OC)c1 [RA-0001819]
IC50 (CHIKV nsP2 ATPase [1]): 0.6 µM
Hill slope (CHIKV nsP2 ATPase [1]; Avge n=2): 0.7
inhibition at 25 µM (CHIKV nsP2 ATPase [2]; [3]): 66%
inhibition at 25 µM (CHIKV nsP2 ATPase [2]; [4]): 72%
solubility kinetic (Kinetic solubility): 12.5 µM (≈ 5.7 µg/mL)

Cc1c(Cl)ccc2c1NC(C(=O)O)C1CC=CC21 (stereo not shown) [RA-0001808]
inhibition at 25 µM (CHIKV nsP2 ATPase [2]; [3]): 63%
inhibition at 25 µM (CHIKV nsP2 ATPase [2]; [4]): 69%

O=c1cc(-c2ccc(O)c(O)c2)oc2cc(O)cc(O)c12 [RA-0001820]
inhibition at 25 µM (CHIKV nsP2 ATPase [2]; [3]): 60%
inhibition at 25 µM (CHIKV nsP2 ATPase [2]; [4]): 62%

Cc1cccc(CSc2nsc(SCc3cccc(C)c3)c2C#N)c1 [RA-0001803]
inhibition at 25 µM (CHIKV nsP2 ATPase [2]; [3]): 57%
inhibition at 25 µM (CHIKV nsP2 ATPase [2]; [4]): 61%

Clc1cccc(CSC2=NC3(CCCCC3)Nc3ccccc32)c1 [RA-0001814]
inhibition at 25 µM (CHIKV nsP2 ATPase [2]; [3]): 73%
inhibition at 25 µM (CHIKV nsP2 ATPase [2]; [4]): 54%

— doi:10.1101/2024.12.02.625520, “Identification of Inhibitors of Chikungunya virus nsP2 ATPase” (bioRxiv, 2025)
